From EP0160115A1, “Growth stimulating food additive for animals” (SPOFA Spojené Podniky Pro Zdravotnickou Vyrobu, priority 1984, dated 1985)

What was measured:
[1] = Ratten, p.o.; cited from earlier work
[2] = Fattening trial in early-weaned piglets with supplemented feed (4 weeks); assay type: in vivo, Ferkel; settings: 28 days; for Zuwachsindex (%): 100 ppm of each active in feed; for Zuwachsindex (%) / Ausnutzungsindex (%): control = 100,0; for Ausnutzungsindex (%), difference from control (in brackets) / Ausnutzungsindex (%) / Futtermittel-Ausnutzung, x̄: 100 ppm of each active; for Futtermittel-Ausnutzung, x̄: feed consumption per unit of gain, control 2,0
Source text: Frühabgesetzte Ferkel (Mischlinge des weißen edlen Landschweinsx Landrasse), die innerhalb einer Zeitspanne von 6 Tagen geboren waren, wurden aus der Gebärstation am S. Tage nach dem Absetzen in die Versuchsanlage gebracht. Die Ferkel wurden in Gruppen von je 8 bis 12 Tieren in Boxen untergebracht, die mit Rostböden versehen und durch hölzerne Bodenplatten beheizt waren. Nach 7 Tagen Anpassungszeit wurde der eigentliche Mastversuch begonnen. Über die gesamte Versuchsdauer von 4 Wochen wurde in allen Gruppen das Futtergemishc ? OS 2 für früh abgesetzte Ferkel verfüttert, das durch Zusatz der entsprechenden Prämixe jeweils mit folgenden Wirkstoffen angereichert wurde: • Gruppe I (Kontrollgruppe): Futtergemisch allein ohne Zusatz • Gruppe II: Cyadox, 100 ppm (100 mg pro kg Futtergemisch) • Gruppe III: Roh-Tylo-sin, 100 ppm reine Tylosinbase • Gruppe IV : Cyadox und Roh-Tylosin, je 100 ppm.
Zu Beginn des Versuchs und am Versuchsende (28. Tag) wurden die Tiere individuell gewogen. Der Futterverbrauch pro Gruppe wurde täglich ermittelt und daraus die Futtermittelausnutzung, dh der Futterverbrauch pro Zuwachseinheit, berechnet. Ebenso wurde der Allgemeinzustand der Tiere täglich verfolgt.

[3] = system: Vibrio coli; assay: Treatment of bloody diarrhoea in pre-fattening pigs via supplemented feed (14 days); assay type: in vivo, Vormastschweine
Source text: (§1) Die Versuche wurden in einem Schweinemastbetrieb durchgeführt, bei dem ständig bei 5 bis 15 der Vormastschweine (Rasse BU x PC + L) von etwa 50 kg Gewicht, die in Koben zu 10 bis 15 Tieren untergebracht waren, blutige Durchfälle auftraten.
(§2) Die Versuchstiere wurden in 4 Gruppen aufgeteilt und während der gesamten Versuchsdauer von 14 Tagen mit dem Vormastschweine-Futtergemisch SOL unter folgender Wirkstoffzugabe behandelt: • Gruppe I (Kontrollgruppe): Futtergemisch allein Gruppe II: Phthalazol, 100 ppm • Gruppe III: Cyadox, 100 ppm • Gruppe IV: Cyadox und Phthalazol, je 100 ppm.

[4] = Weight gain of pre-fattening pigs on supplemented feed in a herd with bloody diarrhoea (14 days); assay type: in vivo, Vormastschweine; settings: 100 ppm of each active in feed; for Gesamtzuwachs x̄ (kg): control 8,95; for Endgewicht x̄ (kg): control 59,43; for Tageszuwachs: control 639; for Zuwachsindex (%): control = 100
Source text: as §1, with “auftraten. Histologisch und mikrobiologisch wurde als Erreger der Durchfallerkrankung Vibrio coli festgestellt.” for “auftraten.”
as §2

[5] = 100 ppm of each active in feed, 14 days

Row | SMILES | LD50 [1] [mg/kg] | Zuwachsindex (%) [2] | Ausnutzungsindex (%), difference from control (in brackets) [2] | Ausnutzungsindex (%) [2] | Futtermittel-Ausnutzung, x̄ [2] | Anzeichen blutiger Durchfälle [3, 5] | Heilungsgrad [3, 5] | Gesamtzuwachs x̄ (kg) [4] | Endgewicht x̄ (kg) [4] | Tageszuwachs [4] [g] | Zuwachsindex (%) [4] | Schweine notgeschlachtet wegen unbefriedigenden Allgemeinzustands ([3]; at end of trial, group of 20 pigs, 100 ppm)
1 | N#CCC(=O)NN=Cc1c[n+]([O-])c2ccccc2[n+]1[O-] [Cyadox, 2-Formylchinoxalin-1,4-dioxy-cyanacetyl-hydrazon] | 15000 | 109,8% | -0,5% | 99,5% | 1,99 | keine Anzeichen blutiger Durchfälle | 100 | 10,10 kg | 57,90 kg | 721 | 112,8% | 
2 | O=C(O)c1ccccc1C(=O)Nc1ccc(S(=O)(=O)Nc2nccs2)cc1 [Phthalazol] |  |  |  |  |  |  |  | 8,99 kg | 59,61 kg | 642 | 100,5% | 5
3 | CC[C@H]1OC(=O)C[C@@H](O)[C@H](C)[C@@H](O[C@@H]2O[C@H](C)[C@@H](O[C@H]3C[C@@](C)(O)[C@@H](O)[C@H](C)O3)[C@H](N(C)C)[C@H]2O)[C@@H](CC=O)C[C@@H](C)C(=O)/C=C/C(C)=C/[C@@H]1CO[C@@H]1O[C@H](C)[C@@H](O)[C@@H](OC)[C@H]1OC [Tylosin] |  | 125,9% | -7,8% | 92,2% | 1,90 |  |  |  |  |  |  | 
